Measured values: patent publication US10821065B2, “Peptide for inhibiting biofilms” (SEOUL NATIONAL UNIVERSITY R&DB FOUNDATION, priority 2017, dated 2020)

Tests used:
[1] = tested on: Enterococcus faecalis biofilm; assay: Enterococcus faecalis biofilm formation on dentin sections, scanning electron microscope; format: cell-based; details: 5×10^6 CFU/ml; 10 μg/ml HBD3-C15, 25 μg/ml CH, 0.02% CHX, or combination; 37° C., 24 hours; FIG. 3
Experimental: (§1) To confirm whether the Streptococcus mutans biofilm inhibition through synergistic effects of HBD3-C15 and an existing dental therapeutic agent is reproduced in the formation of biofilms formed by other dental infectious bacteria, Enterococcus faecalis and Streptococcus gordonii were cultured in a BHI medium and a Todd Hewitt yeast (THY) medium, respectively, and then E. faecalis and S. gordonii were prepared at 5×10^6 CFU/ml and 1×10^8 CFU/ml, respectively, and treated, on the dentin sections, with 10 μg/ml of HBD3-C15, 25 μg/ml of CH, 0.02% CHX, or a combination thereof. After incubation at 37° C. for 24 hours, comparison of the degree of biofilm formation was conducted using a scanning electron microscope.

[2] = tested on: Streptococcus mutans biofilm; assay: Streptococcus mutans biofilm formation, 0.1% crystal violet staining; format: cell-based; details: 37° C., 24 hours; for S. mutans biofilm formation (crystal violet), single or co-treatment: 10 μg/ml HBD3-C15, 25 μg/ml CH, 0.02% CHX, or combination, FIG. 2A
Experimental: To confirm the effect of HBD3-C15 on a Streptococcus mutans biofilm, Streptococcus mutans was cultured in a Brain Heart Infusion (BHI) medium. The cultured Streptococcus mutans was prepared at 1×10^7 CFU/ml, and then 1% NaCl or 0.05% sucrose was added thereto to promote biofilm formation, followed by treatment with 50 μg/ml of HBD3-C15. After incubation at 37° C. for 24 hours, 0.1% crystal violet staining was performed for comparison of the degree of biofilm formation.
In addition, 0.05% sucrose was added to Streptococcus mutans, followed with treatment with HBD3-C15 at a concentration of 10 μg/ml, 30 μg/ml, or 50 μg/ml. After incubation at 37° C. for 24 hours, 0.1% crystal violet staining was performed for comparison of the degree of biofilm formation.
To determine whether HBD3-C15 is capable of inhibiting a biofilm by synergistic effects with calcium hydroxide (CH) or chlorohexidine (CHX), which is an existing dental therapeutic agent, Streptococcus mutans was cultured in a BHI medium and then prepared at 1×10^7 CFU/ml, and treated with 10 μg/ml of HBD3-C15, 25 μg/ml of CH, 0.02% CHX, or a combination thereof in the presence of 0.05% sucrose. After incubation at 37° C. for 24 hours, 0.1% crystal violet staining was performed for comparison of the degree of biofilm formation.

[3] = tested on: Streptococcus mutans biofilm; assay: Streptococcus mutans biofilm formation on human teeth dentin sections, scanning electron microscope; format: cell-based; details: 10 μg/ml HBD3-C15, 25 μg/ml CH, 0.02% CHX, or combination; 0.05% sucrose; 37° C., 24 hours; FIG. 2B
Experimental: In addition, human teeth dentin sections were prepared to represent an actual oral infection situation, 1×10^7 CFU/ml of Streptococcus mutans was treated, on the dentin sections, with 10 μg/ml of HBD3-C15, 25 μg/ml of CH, 0.02% CHX, or a combination thereof in the presence of 0.05% sucrose. After incubation at 37° C. for 24 hours, comparison of the degree of biofilm formation was conducted using a scanning electron microscope.

[4] = tested on: Streptococcus gordonii biofilm; assay: Streptococcus gordonii biofilm formation on dentin sections, scanning electron microscope; format: cell-based; details: 1×10^8 CFU/ml; 10 μg/ml HBD3-C15, 25 μg/ml CH, 0.02% CHX, or combination; 37° C., 24 hours; FIG. 3
Experimental: as §1

[5] = Tooth discoloration of treated dentin sections, photographed; design: species or system human; details: 30 μg/ml HBD3-C15, 0.002% CHX, 0.02% CHX, or combination (2% CHX positive control), 37° C., 7 days, FIG. 5
Experimental: According to previous papers, it has been reported that CHX, which is a typical dental therapeutic agent, causes side effects such as tooth discoloration. Thus, to confirm the effect of treatment with HBD3-C15 alone or a combination of HBD3-C15 and CHX on tooth discoloration, dentin sections were treated with 30 μg/ml of HBD3-C15, 0.002% CHX, 0.02% CHX, or a combination thereof, and 2% CHX was used as a positive control. Subsequently, the dentin sections were cultured at 37° C. for 7 days and photographed to observe the degree of tooth discoloration.

[6] = tested on: Streptococcus mutans biofilm; assay: Streptococcus mutans biofilm formation, confocal microscope; format: cell-based; details: HBD3-C15 at 10, 30 or 50 μg/ml; 0.05% sucrose; FIG. 1C

Molecule: [Ca+2].[OH-].[OH-] [CH, calcium hydroxide]
- E. faecalis biofilm formation on dentin sections (SEM), single or co-treatment [1]: inhibited
- S. mutans biofilm formation (crystal violet), single or co-treatment ([2]; 0.05% sucrose): inhibited
- S. mutans biofilm formation on dentin sections (SEM), single or co-treatment [3]: inhibited
- S. gordonii biofilm formation on dentin sections (SEM), single or co-treatment [4]: inhibited

Molecule: N=C(NCCCCCCNC(=N)NC(=N)Nc1ccc(Cl)cc1)NC(=N)Nc1ccc(Cl)cc1 [CHX, chlorohexidine]
- E. faecalis biofilm formation on dentin sections (SEM), single or co-treatment [1]: inhibited
- S. mutans biofilm formation (crystal violet), single or co-treatment ([2]; 0.05% sucrose): inhibited
- tooth discoloration [5]: induced by treatment with CHX alone in a concentration-dependent manner
- S. mutans biofilm formation on dentin sections (SEM), single or co-treatment [3]: inhibited
- S. gordonii biofilm formation on dentin sections (SEM), single or co-treatment [4]: inhibited

Molecule: G-K-C-S-T-R-G-R-K-C-C-R-R-K-K [HBD3-C15]
- E. faecalis biofilm formation on dentin sections (SEM), single or co-treatment [1]: inhibited
- formation of Streptococcus mutans biofilm (confocal microscope) [6]: inhibit formation of a biofilm in a concentration-dependent manner
- S. mutans biofilm formation (crystal violet), single or co-treatment ([2]; 0.05% sucrose): inhibited
- formation of Streptococcus mutans biofilm (crystal violet) ([2]; 50 μg/ml HBD3-C15, biofilm promoted by 0.05% sucrose, FIG. 1A): inhibited
- formation of Streptococcus mutans biofilm (crystal violet) ([2]; 50 μg/ml HBD3-C15, biofilm promoted by 1% NaCl, FIG. 1A): inhibited
- formation of Streptococcus mutans biofilm (crystal violet) ([2]; HBD3-C15 at 10, 30 or 50 μg/ml, 0.05% sucrose, FIG. 1B): inhibited in a concentration-dependent manner
- S. mutans biofilm formation on dentin sections (SEM), single or co-treatment [3]: inhibited
- S. gordonii biofilm formation on dentin sections (SEM), single or co-treatment [4]: inhibited
